# B1: clone 19R: lambda gt 11 cDNA clone encoding Lol p Ib.2 (protein)
# chain: MAVQKHTVALFLAVALVAGPAASYAADAGYAPATPATPAAPATAATPATPATPATPAAVPSGKATTEEQKLIEKINAGFKAAVAAAAVVPPADKYKTFVETFGTATNKAFVEGLASGYADQSKNQLTSKLDAALKLAYEAAQGATPEAKYDAYVATLTEALRVIAGTLEVHAVKPAAEEVKVGAIPAAEVQLIDKVDAAYRTAATAANAAPANDKFTVFENTFNNAIKVSLGAAYDSYKFIPTLVAAVKQAYAAKQATAPEVKYTVSETALKKAVTAMSEAEKEATPAAAATATPTPAAATATATPAAAYATATPAAATATATPAAATATPAAAGGYKV
# B2: Lol p Ib.2: protein encoded by clone 19R (SEQ ID NO.: 4) (protein)
# chain: B1 chain
# B3: Lol p Ib.1: protein encoded by the 12R clone (SEQ ID NO.: 2) (protein)
# chain: MAVQKYTVALFLAVALVAGPAASYAADAGYTPAAAATPATPAATPAAAGGKATTDEQKLLEDVNAGFKAAVAAAANAPPADKFKIFEAAFSESSKGLLATSAAKAPGLIPKLDTAYDVAYKAAEGATPEAKYDAFVTALTEALRVIAGALEVHAVKPATEEVPAAKIPTGELQIVDKIDAAFKIAATAANAAPTNDKFTVFESAFNKALNECTGGAYETYKFIPSLEAAVKQAYAATVAAAPEVKYAVFEAALTKAITAMTQAQKAGKPAAAAATGAATVATGAATAAAGAATAAAGGYKA
# B4: Clone 12: 1.2 kb cDNA clone lambda-12R; its expressed protein is designated Lol p Ib.1 (protein)
# chain: B3 chain
# Experiments:
# [1] = tested on: Mab FMC-A7 and rabbit polyclonal anti-Lol p Ib antiserum; assay: Peptide dot blot immunoassay: mouse/rabbit IgG; assay type: binding
# Experimental: (§1) The peptides were dissolved in water to give a 1.6 mM stock solution. Insoluble peptides were dissolved by sonication (Branson Sonifier 450, USA) for 1 minute.
# (§2) The peptides were immobilized onto nitrocellulose (NC) filter by using a modified method published elsewhere (Sithigonglu (1991) J. Immunol. Methods, 141:23-32). Two μl of the peptide stock solutions were spotted on the NC filter (Schleicher & Schuell, W. Germany) about 1 cm apart. After the strips were dried and baked at 80° C. for one hour, they were fixed by exposure, in a tightly sealed plastic box, to vapor from 0.2% glutaraldehyde in PBS at room temperature (18° C.) for one hour. After washing thoroughly with distilled water, the NC filters were blocked with Blotto (10% non-fat dry milk in PBS) for two hours and washed in 1×Tween-PBS (0.1% Tween-20 in PBS) and 2×PBS, five minutes each.
# (§3) The peptides were then screened for human IgE and mouse/rabbit IgG epitopes with individual sera (diluted 1:4 in PBS with 0.5% BSA), MAbs FMC A7 (Smart et al. (1983) Int. Arch. Allergy Clin. Immunol. 72: 243) and polyclonal rabbit anti-Lol p Ib antibody. The rabbit anti-sera was a gift from Dr. Jenny Roland, Alfred Hospital, Melbourne, Australia.
# (§4) The intensity of each dot blot was measured by densitometer (Pharmacia LKB UltraScan XL, Sweden). Densitometric values greater than two were considered as positive binding in comparison to the background. For every peptide, the sera and antibody values have been added (score/peptide) and divided by the number of positive sera to express the final value as an average (score/sera). Sera C1 and C2 were not grass allergic and were used as negative controls. C refers to crude ryegrass pollen extract (1 μg/dot) as positive control.
# [2] = tested on: human IgE of individual sera; assay: Peptide dot blot immunoassay: human IgE; assay type: binding; conditions: for IgE Binding (symbol): sera diluted 1:4
# Experimental: as §1, §2, §3, §4
# [3] = tested on: IgE from sera of allergic indivs.; assay: Screening of lambda-gt 11 cDNA clones for IgE binding; parameters: species or system human; key: ++: strongest binding; -: no binding; conditions: protein expressed by lambda-gt 11 clone, plaque lift
# Experimental: (§5) Poly (A+) mRNA isolated from mature rye grass pollen by the phenol method ([…] and Michaels, (1984) Plant Mol. Biol. Rep., 2:24-28) was used to construct a cDNA library in the vector lambda-gt 11. The library was then screened with antibody probes to detect sequences expressing Group I proteins. E. coli […] transfected with 3×10^4 recombinant phages were plated and incubated at 42° C. for 3 h. The plates were overlaid with a dry 132 mm nitrocellulose (NC) filter previously soaked in 10 mm IPTG and transferred to 37° C. After incubation for 3 h the filters were carefully peeled off and incubated in 20 ml per filter of MTBS (10% w/v non-fat milk powder, 50 mm Tris-HCI, pH 7.6, 150 mM Nacl) for 30 min. at room temperature. A second set of NC filters was placed on phage plates and after incubating for 3 h were treated as above. Both sets of NC filters were tested for binding of MAb 40.1 to plaques by the method described in Huynh et al. (1985) In: DNA Cloning, a practical approach, Glover, D. M. (ed.) Vol. 1, pp. 49-78, IRL Press, Oxford, England. The antibody positive plaques were picked, purified, then replated and tested for binding to probes. The positive clones were plaque-purified and tested for IgE binding using sera from grass pollen-allergic subjects. Eighteen clones were selected as encoding proteins recognized by both Lol p I-specific MAbs and IgE antibodies (Table 1). The largest of the cDNA clones, 1.2kb in size, that expressed rye-grass allergenic protein was initially selected for further characterization and sequencing, and designated clone lambda-12R (FIG. 1a).
# [4] = tested on: IgE affinity purified from recombinant allergens and IgE from whole serum of allergic individuals; assay: Two-dimensional Western blot: IgE binding to allergens; parameters: species or system human; conditions: IgE preparations that bind: AP12R, AP13R, AP19R = affinity purified from recombinant Lol p Ib.1 fragment IH, Lol p Ia clone 13R, Lol p Ib.2; TIgE = whole serum
# Excerpt: Serum used in the experiment to identify allergen regions of Lol p Ia and Lol p Ib was collected by Dr. R. Phomley at the Epworth Hospital (Richmond, Australia) from patients with a history of allergy to ryegrass pollen and a positive skin test to ryegrass pollen extract. IgE was affinity-purified from recombinant allergens as previously described (Singh, et al., (1991) Proc. Nat'l Acad. Sci. USA, […]; Example 2) except recombinant proteins were derived from lambda-gt11 culture rather than pGEX cultures.
# (§6) Two dimensional (2D)-PAGE was performed in a mini-Protean II 2-D cell (Biorad, Richmond, Calif.) according to the manufacturer instructions. The proteins were diluted 1:1 in 4% CHAPS. […] The first dimension gel was run for 3.5 hours. The econd dimension gel was run for 45 minutes. Proteins on 2D-PAGE gels were silver stained to reveal the protein profile.
# Conditions for electrophoresis and Western blotting and for the processing of Western blots with MAbs and IgE were as described by Singh, et al., (1985) Int. Arch. Allergy Appl. Immun., 78:300.
# MAb 40.1 = assay: Antibody screening of lambda-gt 11 cDNA clones: binding of MAb 40.1; parameters: key: ++: strongest binding; -: no binding; conditions: protein expressed by lambda-gt 11 clone in E. coli Y1090, plaque lift
# Experimental: as §5
# [5] = Two dimensional gel electrophoresis of ryegrass pollen proteins (pI); assay type: physicochemical, Lolium perenne; conditions: allergen spot on two dimensional gel
# Experimental: as §6
# MAb 12.3 = assay: Antibody screening of lambda-gt 11 cDNA clones: binding of MAb 12.3; parameters: key to Binding of MAb 12.3: ++: strongest binding; -: no binding
# Experimental: as §5
# [6] = tested on: specific IgE from pooled human allergic sera; assay: Immunological screening of clone 19R with sera; assay type: binding; conditions: plaque purified clone
# Excerpt: Duplicate filters of the cDNA expression library in Example 1 were screened with specific IgE from pooled human allergic sera. The bound IgE was detected using ^125 I-labelled anti-human IgE (Kallestad Laboratories,Chaska, Minn.). The plaques that were antibody-positive on both of the duplicate filters were picked off, purified, and then replated and tested for binding to MAbs.
# [7] = tested on: IgE antibodies of individual serum from 30 grass allergic patients; assay: Dot blot screening of recombinant allergens with 30 individual allergic sera; assay type: binding, human
# Experimental: Two microliters of phage stocks of clones 12R, 13R and 19R and a non-recombinant lambda gt 11 were spotted onto a lawn of E. coli Y1090 induced with a nitrocellulose filter saturated with 10 mM IPTG. The protein blots were then probed with individual serum from 30 grass allergic patients. a=Lol p Ib.1, b=Lol p Ia, c=Lol p Ib.2 and d=non-recombinant lambda gt 11. [<]=individuals having higher level of IgE bound to Lol p Ib.2 than Lol p Ia and Lol p Ib.1. [1]=individuals having IgE specific to Lol p Ia. [2]=individuals having IgE specific to Lol p Ib.1 and Lol p Ib.2.
# The relative allergenicity of Lol p Ia, Lol p Ib.1 and Lol p Ib.2 were tested using 30 individual allergic sera.
# [8] = tested on: MAbs 3.2, 12.3, 21.3 and 40.1; assay: Recognition of cloned allergen 12R by MAbs (FIG. 1a); assay type: binding; conditions: MAbs 3.2, 12.3, 21.3, 40.1
# Experimental: Poly (A+) mRNA isolated from mature rye grass pollen by the phenol method (Herrin and Michaels, (1984) Plant Mol. Biol. Rep., 2:24-28) was used to construct a cDNA library in the vector lambda-gt 11. The library was then screened with antibody probes to detect sequences expressing Group I proteins. E. coli Y1090 transfected with 3×10^4 recombinant phages were plated and incubated at 42° C. for 3 h. The plates were overlaid with a dry 132 mm nitrocellulose (NC) filter previously soaked in 10 mm IPTG and transferred to 37° C. After incubation for 3 h the filters were carefully peeled off and incubated in 20 ml per filter of MTBS (10% w/v non-fat milk powder, 50 mm Tris-HCI, pH 7.6, 150 mM Nacl) for 30 min. at room temperature. A second set of NC filters was placed on phage plates and after incubating for 3 h were treated as above. Both sets of NC filters were tested for binding of MAb 40.1 to plaques by the method described in Huynh et al. (1985) In: DNA Cloning, a practical approach, Glover, D. M. (ed.) Vol. 1, pp. 49-78, IRL Press, Oxford, England. The antibody positive plaques were picked, purified, then replated and tested for binding to probes. The positive clones were plaque-purified and tested for IgE binding using sera from grass pollen-allergic subjects. Eighteen clones were selected as encoding proteins recognized by both Lol p I-specific MAbs and IgE antibodies (Table 1). […]
molecule,measurement,setting,value
NECTGGAYETYK [Peptide 24],Mouse/rabbit IgG-reactivity (in words),[1],highest mouse/rabbit IgG-reactivity
same,IgE Binding (symbol),[2],+ (Densitometric values greater than two were considered as positive binding)
AANAPPADKFKI [Peptide 7],Mouse/rabbit IgG-reactivity (in words),[1],highest mouse/rabbit IgG-reactivity
same,Binding of IgE from sera of allergic indivs.,[3],-
same,IgE binding,[4],"AP12R,AP19R and TIgE"
same,Binding of MAb 40.1,MAb 40.1,++
same,pI,[5],6
same,Human IgE-reactivity (in words),[2],highest human IgE-reactivity
same,IgE Binding (symbol),[2],+ (Densitometric values greater than two were considered as positive binding)
ADAGYTPAAAAT [Peptide 1],Mouse/rabbit IgG-reactivity (in words),[1],highest mouse/rabbit IgG-reactivity
same,Binding of IgE from sera of allergic indivs.,[3],-
same,Binding of MAb 12.3,"MAb 12.3; protein expressed by lambda-gt 11 clone in E. coli Y1090, plaque lift",-
same,IgE binding,[4],AP13R TIgE
same,Binding of MAb 40.1,MAb 40.1,-
same,pI,[5],5.5
B1,Reaction with non-allergic sera,[6],not positive
same,Binding of specific IgE in sera of ryegrass sensitive patients,[6]; pooled allergic sera,bind specific IgE
B2,Patients with IgE antibodies reactive to the recombinant allergen,[7],80%
B3,"Affinity of MAb 12.3 (footnote of Table 1, in words)",MAb 12.3,high affinity
same,Patients with IgE antibodies reactive to the recombinant allergen,[7],80%
B4,Recognition by all four MAbs used in this study,[8],recognized
